Measured values reported in patent publication US20240148821A1, “PHARMACEUTICAL USE OF CYCLIC PEPTIDE COMPOUND” (CHUGAI SEIYAKU KABUSHIKI KAISHA, priority 2021, published 2024).
Numbered stars: 1 amine (or outer) side, 2 acyl side, 3 side chain; on linkers, the order of the positions; unused ones are H or OH. Bridge positions count the residues as written; N and C are the ends. Square brackets hold non-standard residues; d marks the D form. Peptide text beside a SMILES is read from it. * marks the point of attachment. hPhe(3-Cl-4-CF3) = N[C@@H](CCc1ccc(C(F)(F)F)c(Cl)c1)C(=O)O; hPhe(3-F,4-CF3) = N[C@@H](CCc1ccc(C(F)(F)F)c(F)c1)C(=O)O; NMePhe(4-Cl) = CN[C@@H](Cc1ccc(Cl)cc1)C(=O)O; NMePhe(4-Me) = CN[C@@H](Cc1ccc(C)cc1)C(=O)O; NMedβ3hAla = C[C@H](CC(=O)[*:2])N(C)[*:1]; hNle(7,7-F2) = N[C@@H](CCCCC(F)F)C(=O)O; NMeGly(cPent) = CN[C@H](C(=O)O)C1CCCC1; NMeCha = CN[C@@H](CC1CCCCC1)C(=O)O; NMeAhp(2) = CCCCC[C@H](NC)C(=O)O; NMeI = CC[C@H](C)[C@H](NC)C(=O)O; NMeD = CN[C@@H](CC(=O)O)C(=O)O; NMeL = CN[C@@H](CC(C)C)C(=O)O; NMeV = CN[C@H](C(=O)O)C(C)C; d(β3hA) = C[C@@H](N)CC(=O)O; Azetidin(1-yl) = C1CN(*)C1; NMeA = CN[C@@H](C)C(=O)O; NMeAib = CNC(C)(C)C(=O)O; Nle = CCCC[C@H](N)C(=O)O; Piperidide = C1CCN(*)CC1; Ac5c = NC1(C(=O)O)CCCC1; Aze = O=C(O)[C@@H]1CCN1; Sar = CNCC(=O)O

Assays:
[1] = target: protein-protein interaction between Kras and SOS1 (biotin-tagged human Kras loaded with GDP, His-tagged human SOS1) (Homo sapiens (Human), UniProt P01116, G12D); assay: Protein-protein interaction inhibition between Kras and SOS1 (KrasG12D-SOS PPI) using AlphaScreen; assay type: biochemical; conditions: AlphaScreen; biotin-tagged human Kras loaded with GDP, His-tagged human SOS1; read-out: KRAS G12D-SOS PPI IC50;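 also: kras produced in E. coli, Ni-coupled donor beads and streptavidin acceptor beads, excitation 680 nm with emission detected at 520–620 nm via singlet oxygen transfer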
[2] = tested on: Human pancreatic cancer cell line AsPC-1 (G12D mutation Kras); assay: AsPC-1 cell growth inhibition (AsPC-1 CGI); assay type: cell-based; conditions: read-out: AsPC-1 cell growth inhibition, 50% growth inhibitory concentration (IC50 value); 96 hours, CellTiter-Glo, values classified in ranges
Protocol: Test compounds were serially dilated with dimethyl sulfoxide, and 200 nL was then dispensed to a U-bottom 96-well plate using Labcyte Echo. […] The cell suspension was dispensed to a. plate containing a test compound at 100 μL per well and incubated at 37° C. in a 5% carbon dioxide gas incubator. 96 hours later, 80 μL of CellTiter-Glo (Promega) was added to each well and fluorescence was measured.

CC[C@H](C)[C@@H]1NC(=O)[C@H](CC(C)C)N(C)C(=O)C[C@@H](C(=O)N(C)C)N(C)C(=O)[C@H](C2CCCC2)N(C)C(=O)C2(CCCC2)NC(=O)[C@@H]2CCCN2C(=O)[C@H](CCc2ccc(C(F)(F)F)c(F)c2)NC(=O)CN(C)C(=O)[C@H](C2CCCC2)N(C)C(=O)[C@@H]2CCN2C(=O)[C@H](C)N(C)C1=O [Compound 134] ([NMeL]I[NMeA][Aze][NMeGly(cPent)][Sar][hPhe(3-F,4-CF3)]P[Ac5c][NMeGly(cPent)][NMeD]-NMe2; lactam N-11)
IC50 [1]: 0.61 nM | IC50 [2]: ≤ 20 nM

CC[C@H](C)[C@@H]1NC(=O)[C@H](CC(C)C)N(C)C(=O)C[C@@H](C(=O)N2CCCCC2)N(C)C(=O)[C@H](C(C)C)N(C)C(=O)C2(CCCC2)NC(=O)[C@@H]2CCCN2C(=O)[C@H](CCc2ccc(C(F)(F)F)c(F)c2)NC(=O)CN(C)C(=O)[C@H](CC2CCCCC2)N(C)C(=O)CN(C)C(=O)[C@@H]2CCN2C1=O [Compound 139] ([NMeL]I[Aze][Sar][NMeCha][Sar][hPhe(3-F,4-CF3)]P[Ac5c][NMeV][NMeD]-Piperidide; lactam N-11)
IC50 [1]: 8.4 nM | IC50 [2]: > 500 nM

CCCCC[C@H]1C(=O)N[C@@H]([C@@H](C)CC)C(=O)N(C)[C@@H](C)C(=O)N2CC[C@H]2C(=O)N(C)[C@@H](CC2CCCCC2)C(=O)N(C)CC(=O)N[C@@H](CCc2ccc(C(F)(F)F)c(Cl)c2)C(=O)N2CCC[C@H]2C(=O)NC2(CCCC2)C(=O)N(C)[C@@H](C2CCCC2)C(=O)N(C)[C@H](C(=O)N2CCC2)CC(=O)N1C [Compound 144] ([NMeAhp(2)]I[NMeA][Aze][NMeCha][Sar][hPhe(3-Cl-4-CF3)]P[Ac5c][NMeGly(cPent)][NMeD]-{Azetidin(1-yl)}; lactam N-11)
IC50 [1]: 1.1 nM | IC50 [2]: ≤ 20 nM

CC(C)C[C@H]1C(=O)N[C@@H](CCCCC(F)F)C(=O)N(C)[C@@H](C)C(=O)N2CC[C@H]2C(=O)N(C)[C@@H](CC2CCCCC2)C(=O)N(C)CC(=O)N[C@@H](CCc2ccc(C(F)(F)F)c(Cl)c2)C(=O)N2CCC[C@H]2C(=O)NC2(CCCC2)C(=O)N(C)[C@@H](C(C)C)C(=O)N(C)[C@H](C(=O)N2CCCCC2)CC(=O)N1C [Compound 145] ([NMeL][hNle(7,7-F2)][NMeA][Aze][NMeCha][Sar][hPhe(3-Cl-4-CF3)]P[Ac5c][NMeV][NMeD]-Piperidide; lactam N-11)
IC50 [1]: 25 nM | IC50 [2]: > 500 nM

CC[C@H](C)[C@@H]1NC(=O)[C@H](CC(C)C)N(C)C(=O)C[C@@H](C(=O)N2CCC2)N(C)C(=O)[C@H]([C@@H](C)CC)N(C)C(=O)C2(CCCC2)NC(=O)[C@@H]2CCCN2C(=O)[C@H](CCc2ccc(C(F)(F)F)c(Cl)c2)NC(=O)CN(C)C(=O)[C@H](CC2CCCCC2)N(C)C(=O)[C@@H]2CCN2C(=O)[C@H](C)N(C)C1=O [Compound 150] ([NMeL]I[NMeA][Aze][NMeCha][Sar][hPhe(3-Cl-4-CF3)]P[Ac5c][NMeI][NMeD]-{Azetidin(1-yl)}; lactam N-11)
IC50 [1]: 1.3 nM | IC50 [2]: ≤ 20 nM

CC[C@H](C)[C@@H]1NC(=O)[C@H](C)N(C)C(=O)C[C@@H](C)NC(=O)[C@H](C2CCCC2)N(C)C(=O)C2(CCCC2)NC(=O)[C@@H]2CCCN2C(=O)[C@H](CCc2ccc(C(F)(F)F)c(Cl)c2)NC(=O)CN(C)C(=O)[C@H](Cc2ccc(C)cc2)N(C)C(=O)[C@@H]2CCCN2C(=O)CN(C)C1=O [Compound 151] (cyclo([Ac5c][NMeGly(cPent)][d(β3hA)][NMeA]I[Sar]P[NMePhe(4-Me)][Sar][hPhe(3-Cl-4-CF3)]P))
IC50 [1]: 5 nM | IC50 [2]: > 500 nM

CC[C@H](C)[C@@H]1NC(=O)[C@H](CC(C)C)N(C)C(=O)C[C@@H](C(=O)N2CCCCC2)N(C)C(=O)[C@H](C(C)C)N(C)C(=O)C2(CCCC2)NC(=O)[C@H](C)NC(=O)[C@H](CCc2ccc(C(F)(F)F)c(Cl)c2)NC(=O)CN(C)C(=O)[C@H](CC2CCCCC2)N(C)C(=O)CN(C)C(=O)CN(C)C1=O [Compound 156] ([NMeL]I[Sar][Sar][NMeCha][Sar][hPhe(3-Cl-4-CF3)]A[Ac5c][NMeV][NMeD]-Piperidide; lactam N-11)
IC50 [1]: 0.98 nM | IC50 [2]: > 500 nM

CCCC[C@@H]1NC(=O)[C@H](CCc2ccc(C(F)(F)F)c(F)c2)NC(=O)CN(C)C(=O)[C@H](Cc2ccc(Cl)cc2)N(C)C(=O)CN(C)C(=O)CN(C)C(=O)[C@H]([C@@H](C)CC)NC(=O)[C@H](CC(C)C)N(C)C(=O)C[C@@H](C)N(C)C(=O)[C@H](CC(C)C)NC(=O)C(C)(C)N(C)C1=O [Compound 165] (cyclo(I[Sar][Sar][NMePhe(4-Cl)][Sar][hPhe(3-F,4-CF3)][Nle][NMeAib]L[NMedβ3hAla][NMeL]))
IC50 [1]: 41 nM | IC50 [2]: > 500 nM
